Assays:
Format in all cases: in vivo
[1] = tested on: Aphidoletes aphidimyza larvae; test: Larvae treatment Aphidoletes: kill of beneficial species larvae on Savoy cabbage
Method: (§1) Foliar treatment is carried out using compound (I-5) in a concentration of 75 g of active compound per hectare.
(§2) Drench treatment is carried out using compound (I-5) in a concentration of 10 mg of active compound per plant.
(§3) Foliar treatment with Karate Zeon CS100 as toxic control was carried out in a concentration of 12.5 g of active compound per hectare.
Beneficial species: Aphidoletes aphidimyza larvae Pest: Myzus persicae
Each experiment is carried out in 3 repetitions.
Per plot, 6 Savoy cabbage plants are placed into a planting-out tray and infested with Myzus persicae. About 1 week later, with a well-established Myzus population, the Aphidoletes aphidimyza are added. The application is carried after about 2 weeks once sufficient L2 stage Aphidoletes larvae are present (at least 20 larvae per tray).
In preparation for the application, the plants are reduced to 4 healthy green leaves.
Immediately prior to the application, the Myzus population and the number of Aphidoletes larvae are rated. For the application, all 6 plants of a plot are placed onto the turntable, and the amount of spray liquor for 0.666 m^2 is applied while turning slowly. After the application, the trays are placed into the standard cages.
For each plant, the number of Myzus persicae is estimated at the beginning at the appropriate points in time, and the larvae are counted accurately.

[2] = tested on: Myzus persicae; test: Larvae treatment Episyrphus: infestation by Myzus persicae on Savoy cabbage; conditions: Episyrphus larvae added
Method: as §1, §2, §3
Beneficial species: Episyrphus balteatus larvae Pest: Myzus persicae
Per experiment, 3 repetitions with in each case 2 pot cages with in each case 5 larvae are carried out.
For the experiment, Savoy cabbage plants are grown in pots having a diameter of 14 cm, placed in a breeding cage and infested thoroughly with Myzus persicae.
After the spray coating has dried on, a quartz sand layer of a thickness of about 1 cm is applied to the soil in the pot, and the pot cage is put over the plant. In each case 5 Episyrphus larvae are then counted out, and in each case 5 specimen are added to the plants in the pot cage.
(§4) For each plant, at the beginning the Myzus persicae number is estimated at the appropriate points in time and the dead, dying and alive larvae are counted separately. All larvae, i.e. all larvae present on the plant and the surface of the quartz sand base, are counted.

[3] = tested on: Metopolophium dirhodum; test: Treatment Anthocoris adult: infestation by Metopolophium dirhodum on maize; conditions: Anthocoris adults added
Method: as §1, §2, §3
(§5) Beneficial species: Anthocoris nemoralis adults Pest: Metopolophium dirhodum
(§6) Per experiment, 3 repetitions with in each case 2 pot cages with in each case 5 adults are carried out.
(§7) For the experiment, maize plants are grown in pots having a diameter of 14 cm, placed in a breeding cage and infested thoroughly with Metopolophium dirhodum. Per experiment, 6 pots having a well-established aphid population are selected and the aphids are rated by estimation of their number. The plants are treated with the active compound solution of the appropriate concentration.
(§8) After the spray coating has dried on, a quartz sand layer of a thickness of about 1 cm is applied to the soil in the pot, and the pot cage is put over the plant.
(§9) In each case 5 Anthocoris adults are then counted out, and in each case 5 specimen are added to the plants in the pot cage.
(§10) For each plant, at the beginning the Metopolophium dirhodum number is estimated at the appropriate points in time and the dead, dying and alive adults are counted separately. All adults, i.e. all adults present on the plant and the surface of the quartz sand base, are counted.

[4] = tested on: Myzus persicae; test: Larvae treatment Coccinella: infestation by Myzus persicae on Savoy cabbage; conditions: Coccinella larvae added
Method: as §1, §2, §3
Beneficial species: Coccinella septempunctata L2 larvae Pest: Myzus persicae
Each experiment is carried out in 3 repetitions with in each case 2 pot cages with in each case 5 larvae.
as §7, with “Savoy cabbage” for “maize”, “Myzus persicae.” for “Metopolophium dirhodum.”
After the spray coating has dried on, a quartz sand layer of a thickness of about 1 cm is applied to the soil in the pot, and the pot cage is put over the plant. In each case 5 Coccinella larvae are then counted out, and in each case 5 specimen are added to the plants in the pot cage.
as §4

[5] = tested on: Anthocoris nemoralis adults; test: Treatment Anthocoris adult: kill of beneficial species adults on maize
Method: as §1, §2, §3, §5, §6, §7, §8, §9, §10

[6] = 0 days after application, drench 10 mg a.i./plant
[7] = 0 days after application, foliar: (I-5) 75 g a.i./ha, Karate Zeon CS100 12.5 g a.i./ha
[8] = 1 day after application, drench 10 mg a.i./plant
[9] = 1 day after application, foliar: (I-5) 75 g a.i./ha, Karate Zeon CS100 12.5 g a.i./ha
[10] = 3 days after application, drench 10 mg a.i./plant
[11] = 3 days after application, foliar: (I-5) 75 g a.i./ha, Karate Zeon CS100 12.5 g a.i./ha
[12] = 5 days after application, drench 10 mg a.i./plant
[13] = 5 days after application, foliar: (I-5) 75 g a.i./ha, Karate Zeon CS100 12.5 g a.i./ha
[14] = prior to application (baseline), drench 10 mg a.i./plant
[15] = prior to application (baseline), foliar: (I-5) 75 g a.i./ha, Karate Zeon CS100 12.5 g a.i./ha

In the case of `O=C1C=C(N(Cc2ccc(Cl)nc2)CC(F)F)CO1` [compound (I-5), 4-{[(6-chloropyrid-3-yl)methyl](2,2-difluoroethyl)amino}furan-2(5H)-one], the “kill of Aphidoteles aphidimyza larvae [% Abbott]” value [1, 6] is reported as 0%, the “kill of Aphidoteles aphidimyza larvae [% Abbott]” value [1, 7] is reported as 0% and the “kill of Aphidoteles aphidimyza larvae [% Abbott]” value [1, 8] is reported as 3.2%. For the same molecule, the “kill of Aphidoteles aphidimyza larvae [% Abbott]” value [1, 9] was 10.2%, the “kill of Aphidoteles aphidimyza larvae [% Abbott]” value [1, 10] was 4.3% and the “kill of Aphidoteles aphidimyza larvae [% Abbott]” value [1, 11] was 10.5%. For the same molecule, the “kill of Aphidoteles aphidimyza larvae [% Abbott]” value [1, 12] was 7.8%, the “kill of Aphidoteles aphidimyza larvae [% Abbott]” value [1, 13] was 15.2% and the “Infestation by Myzus persicae (number per plant)” value [2, 12] was 23 number per plant. The “Infestation by Myzus persicae (number per plant)” value [2, 13] was 0 number per plant, the “Infestation by Myzus persicae (number per plant)” value [2, 14] was 394 number per plant and the “Infestation by Myzus persicae (number per plant)” value [2, 15] was 375 number per plant. For the same molecule, the “Infestation by Metopolophium dirhodum (number per plant)” value [3, 12] was 2.5 number per plant, the “Infestation by Metopolophium dirhodum (number per plant)” value [3, 13] was 0 number per plant and the “Infestation by Metopolophium dirhodum (number per plant)” value ([3]; drench 10 mg a.i./plant) was 85 number per plant. The “Infestation by Metopolophium dirhodum (number per plant)” value ([3]; foliar: (I-5) 75 g a.i./ha, Karate Zeon CS100 12.5 g a.i./ha) was 78 number per plant, the “Infestation by Myzus persicae (number per plant)” value [4, 12] was 165 number per plant and the “Infestation by Myzus persicae (number per plant)” value [4, 13] was 0 number per plant. The “Infestation by Myzus persicae (number per plant)” value [4, 14] was 552 number per plant, the “Infestation by Myzus persicae (number per plant)” value [4, 15] was 602 number per plant and the “kill of adult Anthocoris nemoralis [% Abbott]” value [5, 6] was 0%. The “kill of adult Anthocoris nemoralis [% Abbott]” value [5, 7] was 0%, the “kill of adult Anthocoris nemoralis [% Abbott]” value [5, 8] was 0% and the “kill of adult Anthocoris nemoralis [% Abbott]” value [5, 9] was 0%. The “kill of adult Anthocoris nemoralis [% Abbott]” value [5, 10] was 1.7%, the “kill of adult Anthocoris nemoralis [% Abbott]” value [5, 11] was 3.3% and the “kill of adult Anthocoris nemoralis [% Abbott]” value [5, 12] was 3.3%. For the same molecule, the “kill of adult Anthocoris nemoralis [% Abbott]” value [5, 13] was 6.7%.
